Results from ChEMBL document CHEMBL1201862, “PubChem BioAssay data set” (2004).
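Dose response: 5 concentrations. Exposure: 48 h. Format: 96-well plates. Endpoint: linear interpolation; highest concentration if not reached. The concentration for 50% growth inhibition is given as GI50.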 Activity calls are given as the source filed them. No stated cut-off is given here; in the data, active = GI50 up to about 1.1 µM and inactive = higher. Where a SMILES comes first, the peptide text is derived from it. [ ]: non-standard residue; d: D form. The star is where a group is joined. Cbz = O=C(OCc1ccccc1)*; Aib = CC(C)(N)C(=O)O; OBn = c1ccc(CO*)cc1

Experiments:
Assay in all cases: NCI anticancer screen, dose series, 48 h
OVCAR-5 = test system: OVCAR-5
BT-549 = test system: BT-549
A498 = test system: A498
UACC-62 = test system: UACC-62
COLO 205 = test system: COLO 205
SK-MEL-2 = test system: SK-MEL-2
SK-MEL-28 = test system: SK-MEL-28
HT-29 = test system: HT-29
SF-539 = test system: SF-539
SW-620 = test system: SW-620
HOP-62 = test system: HOP-62
EKVX = test system: EKVX
HCC 2998 = test system: HCC 2998
SN12C = test system: SN12C
MCF7 = test system: MCF7
NCI/ADR-RES = test system: NCI/ADR-RES
HL-60 = test system: HL-60
MDA-MB-231 = test system: MDA-MB-231
SR = test system: SR
K562 = test system: K562

Row | Structure (SMILES) | GI50 (OVCAR-5) | GI50 (BT-549) | GI50 (A498) | GI50 (UACC-62) | GI50 (COLO 205) | GI50 (SK-MEL-2) | GI50 (SK-MEL-28) | GI50 (HT-29) | GI50 (SF-539) | GI50 (SW-620) | GI50 (HOP-62) | GI50 (EKVX) | GI50 (HCC 2998) | GI50 (SN12C) | GI50 (MCF7) | GI50 (NCI/ADR-RES) | GI50 (HL-60) | GI50 (MDA-MB-231) | GI50 (SR) | GI50 (K562)
1 | COc1ccc2c(C=O)c3n(c(=O)c2c1OC)CCc1cc2c(cc1-3)OCO2 | > 100 µM (inactive) | 18.9 µM (inactive) | > 100 µM (inactive) | 21 µM (inactive) | 15.9 µM (inactive) | 25.9 µM (inactive) | > 100 µM (inactive) | 17.6 µM (inactive) | > 100 µM (inactive) | 38.6 µM (inactive) | > 100 µM (inactive) | 35.6 µM (inactive) | 14.2 µM (inactive) | 41.3 µM (inactive) | 21.8 µM (inactive) | 18.6 µM (inactive) | 29.7 µM (inactive) | > 100 µM (inactive) | – | –
2 | C=C1CN(C2=NCCO2)C1 | > 100 µM (inactive) | > 100 µM (inactive) | – | > 100 µM (inactive) | > 100 µM (inactive) | > 100 µM (inactive) | > 100 µM (inactive) | > 100 µM (inactive) | > 100 µM (inactive) | > 100 µM (inactive) | > 100 µM (inactive) | > 100 µM (inactive) | > 100 µM (inactive) | > 100 µM (inactive) | > 100 µM (inactive) | > 100 µM (inactive) | > 100 µM (inactive) | > 100 µM (inactive) | > 100 µM (inactive) | > 100 µM (inactive)
3 | N=C(N)NS(=O)(=O)c1ccc(NC(=O)c2ccc3nc4ccccc4c(N)c3c2)cc1 | > 100 µM (inactive) | > 100 µM (inactive) | – | > 100 µM (inactive) | > 100 µM (inactive) | > 100 µM (inactive) | > 100 µM (inactive) | > 100 µM (inactive) | > 100 µM (inactive) | > 100 µM (inactive) | > 100 µM (inactive) | > 100 µM (inactive) | > 100 µM (inactive) | > 100 µM (inactive) | > 100 µM (inactive) | > 100 µM (inactive) | > 100 µM (inactive) | > 100 µM (inactive) | > 100 µM (inactive) | > 100 µM (inactive)
4 | Cc1ccc2c(=O)c(-c3nnc(N)s3)c[nH]c2n1 | > 100 µM (inactive) | > 100 µM (inactive) | > 100 µM (inactive) | > 100 µM (inactive) | > 100 µM (inactive) | > 100 µM (inactive) | > 100 µM (inactive) | > 100 µM (inactive) | – | > 100 µM (inactive) | 18.6 µM (inactive) | > 100 µM (inactive) | – | > 100 µM (inactive) | > 100 µM (inactive) | > 100 µM (inactive) | > 100 µM (inactive) | > 100 µM (inactive) | – | > 100 µM (inactive)
5 | CN(C)CCCn1c(Cn2nc3ccccc3n2)nc2cc(C(F)(F)F)ccc21 | > 100 µM (inactive) | 16.8 µM (inactive) | 17.2 µM (inactive) | 19.2 µM (inactive) | 15.3 µM (inactive) | 19.4 µM (inactive) | 17.4 µM (inactive) | 19.7 µM (inactive) | – | 34.2 µM (inactive) | 64.4 µM (inactive) | 28.3 µM (inactive) | 7.6 µM (inactive) | 47.8 µM (inactive) | 22 µM (inactive) | 23.4 µM (inactive) | 1.69 µM (inactive) | 28.9 µM (inactive) | – | 16.5 µM (inactive)
6 | O=C(O)C1CCCCC1C(=O)Nn1cnnc1 (stereo not drawn) | > 100 µM (inactive) | > 100 µM (inactive) | – | > 100 µM (inactive) | > 100 µM (inactive) | > 100 µM (inactive) | > 100 µM (inactive) | > 100 µM (inactive) | > 100 µM (inactive) | > 100 µM (inactive) | > 100 µM (inactive) | > 100 µM (inactive) | > 100 µM (inactive) | > 100 µM (inactive) | > 100 µM (inactive) | > 100 µM (inactive) | – | > 100 µM (inactive) | > 100 µM (inactive) | > 100 µM (inactive)
7 | CC(NC(=O)C(C)(C)NC(=O)C(CC(=O)OCc1ccccc1)NC(=O)OCc1ccccc1)C(N)=O (stereo not drawn) (Cbz-Asp(OBn)-[Aib]-Ala-NH2; configuration not given here) | > 100 µM (inactive) | > 100 µM (inactive) | – | > 100 µM (inactive) | > 100 µM (inactive) | > 100 µM (inactive) | > 100 µM (inactive) | > 100 µM (inactive) | > 100 µM (inactive) | > 100 µM (inactive) | > 100 µM (inactive) | > 100 µM (inactive) | > 100 µM (inactive) | > 100 µM (inactive) | > 100 µM (inactive) | > 100 µM (inactive) | > 100 µM (inactive) | > 100 µM (inactive) | > 100 µM (inactive) | > 100 µM (inactive)
8 | CC1=C(C#N)S(=O)(=O)c2c(oc(C)c2C)N1 | > 100 µM (inactive) | > 100 µM (inactive) | > 100 µM (inactive) | > 100 µM (inactive) | – | > 100 µM (inactive) | > 100 µM (inactive) | > 100 µM (inactive) | > 100 µM (inactive) | > 100 µM (inactive) | > 100 µM (inactive) | > 100 µM (inactive) | > 100 µM (inactive) | > 100 µM (inactive) | > 100 µM (inactive) | > 100 µM (inactive) | – | > 100 µM (inactive) | – | > 100 µM (inactive)
9 | CN(C(=O)c1cc2c(s1)sc1c(=O)n(C)c3ccccc3c12)c1ccccc1 | 63.7 µM (inactive) | > 100 µM (inactive) | – | 6.03 µM (inactive) | > 100 µM (inactive) | 3.77 µM (inactive) | > 100 µM (inactive) | 2.77 µM (inactive) | 5.45 µM (inactive) | – | – | 16.7 µM (inactive) | 4.66 µM (inactive) | 34.8 µM (inactive) | 0.501 µM (active) | 4.54 µM (inactive) | – | 24.8 µM (inactive) | 1.93 µM (inactive) | 2.51 µM (inactive)
10 | O=C(NCCC(F)(F)C(F)(F)C(F)(F)C(F)(F)F)NC1OC(CO)C(O)C(O)C1O (stereo not drawn) | > 100 µM (inactive) | > 100 µM (inactive) | – | > 100 µM (inactive) | > 100 µM (inactive) | > 100 µM (inactive) | > 100 µM (inactive) | > 100 µM (inactive) | > 100 µM (inactive) | > 100 µM (inactive) | > 100 µM (inactive) | – | > 100 µM (inactive) | > 100 µM (inactive) | > 100 µM (inactive) | > 100 µM (inactive) | > 100 µM (inactive) | > 100 µM (inactive) | > 100 µM (inactive) | > 100 µM (inactive)
11 | CCCCCCCCCCOc1ccc(/N=N/c2nnc(-c3ccc(OCCCCC)cc3)s2)cc1 | > 100 µM (inactive) | > 100 µM (inactive) | 49.4 µM (inactive) | 48 µM (inactive) | > 100 µM (inactive) | – | > 100 µM (inactive) | > 100 µM (inactive) | > 100 µM (inactive) | > 100 µM (inactive) | > 100 µM (inactive) | > 100 µM (inactive) | > 100 µM (inactive) | > 100 µM (inactive) | 39.2 µM (inactive) | > 100 µM (inactive) | – | > 100 µM (inactive) | – | > 100 µM (inactive)
12 | CNC(=O)c1ccccc1-[s+]1c2ccccc2c(=O)n1C (stereo not drawn) | > 100 µM (inactive) | > 100 µM (inactive) | > 100 µM (inactive) | > 100 µM (inactive) | > 100 µM (inactive) | > 100 µM (inactive) | > 100 µM (inactive) | > 100 µM (inactive) | > 100 µM (inactive) | > 100 µM (inactive) | > 100 µM (inactive) | > 100 µM (inactive) | – | > 100 µM (inactive) | > 100 µM (inactive) | > 100 µM (inactive) | > 100 µM (inactive) | > 100 µM (inactive) | – | > 100 µM (inactive)
13 | COP(C)(=O)C(Cc1c[nH]c2ccccc12)NC(=O)OCc1ccccc1 (stereo not drawn) | > 100 µM (inactive) | > 100 µM (inactive) | > 100 µM (inactive) | > 100 µM (inactive) | > 100 µM (inactive) | > 100 µM (inactive) | > 100 µM (inactive) | > 100 µM (inactive) | > 100 µM (inactive) | > 100 µM (inactive) | > 100 µM (inactive) | > 100 µM (inactive) | > 100 µM (inactive) | > 100 µM (inactive) | > 100 µM (inactive) | > 100 µM (inactive) | > 100 µM (inactive) | > 100 µM (inactive) | – | > 100 µM (inactive)
14 | CCOC(=O)c1cc(=O)c2ccnc3c2n1CCS3 | > 100 µM (inactive) | 62.2 µM (inactive) | > 100 µM (inactive) | > 100 µM (inactive) | > 100 µM (inactive) | > 100 µM (inactive) | > 100 µM (inactive) | > 100 µM (inactive) | > 100 µM (inactive) | > 100 µM (inactive) | 48.5 µM (inactive) | > 100 µM (inactive) | – | > 100 µM (inactive) | > 100 µM (inactive) | > 100 µM (inactive) | > 100 µM (inactive) | > 100 µM (inactive) | – | –
15 | Cc1ccc(S(=O)(=O)c2c(O)c3ccccc3n(C)c2=O)cc1 | > 100 µM (inactive) | > 100 µM (inactive) | > 100 µM (inactive) | > 100 µM (inactive) | > 100 µM (inactive) | > 100 µM (inactive) | > 100 µM (inactive) | > 100 µM (inactive) | > 100 µM (inactive) | > 100 µM (inactive) | > 100 µM (inactive) | > 100 µM (inactive) | – | > 100 µM (inactive) | > 100 µM (inactive) | > 100 µM (inactive) | > 100 µM (inactive) | > 100 µM (inactive) | – | > 100 µM (inactive)
